For experiment [1], the system named is Plasmodium falciparum. The experiment is described as follows: Antimalarial activity against Plasmodium falciparum assessed as SYBR Green uptake after 48 hrs. It is filed as functional, organism-based.
For experiment [2], the system named is Staphylococcus aureus. The experiment is described as follows: Antibacterial activity against methicillin resistant Staphylococcus aureus ATCC 33591. In kind it is functional, organism-based.
The subject of experiment [3] is Enterococcus faecium. Description: Antibacterial activity against vancomycin resistant Enterococcus faecium ATCC 700221. It is filed as functional, organism-based.
Experiment [4] deals with Mycobacterium tuberculosis. The experiment is described as follows: Antitubercular activity against Mycobacterium tuberculosis […] ATCC 27294 after 4 days by microplate alamar blue assay. It is filed as functional. Conditions: 96 h. For orientation: The colour change of resazurin is a common sign of viable cells or microbes.
Experiment [5] concerns Candida albicans. The experiment is described as follows: Antifungal activity against amphotericin resistant Candida albicans ATCC 90873 after 12 to 15 hrs by Alamar Blue assay. In kind it is functional, organism-based.

≈ marks a conversion by molar mass, not a printed value.

In general, IC50 refers to the concentration at which inhibition is half-maximal. By MIC is commonly meant the least concentration at which growth counts as inhibited. Read a low MIC as inhibition by little substance.

`C=C(C)[C@@H]1CC[C@]2(C)O[C@H]2CC[C@@]2(C)[C@H](Cc3cc(ccc3O)C(=O)O1)C(=C)CC[C@@H]2Br` [BROMOPHYCOLIDE R]: the IC50 in experiment [1] was 1.7 µM; in experiment [2], more than 15 µM; in experiment [3] it was more than 15 µM; in experiment [5], more than 15 µM. This molecule also had an MIC in experiment [4] of more than 50 µM.
As to `C=C1CC[C@H](Br)[C@@]2(C)CC[C@@H]3O[C@@]3(C)CC[C@@H](C(C)(C)Br)OC(=O)c3ccc(O)c(c3)C[C@H]12` [BROMOPHYCOLIDE S], the IC50 in experiment [1] is 0.9 µM; in experiment [2] it was more than 15 µM; in experiment [3], 3.8 µM; in experiment [5] it was more than 15 µM. The MIC in experiment [4] stood at 23 µM (≈ 13.4 µg/mL).
With `CC1=CC[C@H](Br)[C@@]2(C)CC[C@@H](Br)[C@@]3(C)CC[C@H](OC(=O)c4ccc(O)c(c4)C[C@H]12)C(C)(C)O3` [BROMOPHYCOLIDE U], the IC50 in experiment [1] was 2.1 µM; in experiment [2], 0.9 µM; in experiment [3] it was 0.9 µM; in experiment [5], more than 15 µM. Further, the MIC in experiment [4] worked out at 22 µM (≈ 12.9 µg/mL).

These data come from ChEMBL document CHEMBL1154967, “Bioactive bromophycolides R-U from the Fijian red alga Callophycus serratus” (J Nat Prod, 2010).
